The results in this text go back to patent publication US7700602B2, “Amino-5,5-diphenylimidazolone derivatives for the inhibition of β-secretase” (Wyeth LLC, priority 2004, dated 2010).

In one data set the target is human BACE1 (Homo sapiens, UniProt P56817). As to the kind of experiment: Fluorescent kinetic assay, inhibition of BACE1 (WABC-6 peptide substrate).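 Further: fluorescence monitored at 320 nm excitation and 420 nm emission every 40 s over 30 min, with the substrate cleavage rate taken from the linear slope.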 Type of data set: biochemical. The settings on record: 10 nM enzyme, 25 μM substrate WABC-6, pH 4.5, room temperature; read-out: IC50 (μM) BACE1.
Chain of human BACE1 (P56817 46-501): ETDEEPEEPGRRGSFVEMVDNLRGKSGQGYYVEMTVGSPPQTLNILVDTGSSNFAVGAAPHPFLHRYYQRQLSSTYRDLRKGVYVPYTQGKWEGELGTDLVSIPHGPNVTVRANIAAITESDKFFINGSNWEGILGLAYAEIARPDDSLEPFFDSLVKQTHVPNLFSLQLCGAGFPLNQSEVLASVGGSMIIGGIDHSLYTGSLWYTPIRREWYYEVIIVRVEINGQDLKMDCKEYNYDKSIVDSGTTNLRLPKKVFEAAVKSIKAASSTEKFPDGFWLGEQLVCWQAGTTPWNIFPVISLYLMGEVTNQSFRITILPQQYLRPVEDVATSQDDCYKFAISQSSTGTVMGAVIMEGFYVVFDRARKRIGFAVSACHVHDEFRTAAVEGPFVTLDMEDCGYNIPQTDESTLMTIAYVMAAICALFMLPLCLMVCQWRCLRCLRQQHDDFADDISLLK
For another data set, the target named is T1, human BACE2 (Homo sapiens, UniProt Q9Y5Z0).
T1 sequence (Q9Y5Z0 63-518): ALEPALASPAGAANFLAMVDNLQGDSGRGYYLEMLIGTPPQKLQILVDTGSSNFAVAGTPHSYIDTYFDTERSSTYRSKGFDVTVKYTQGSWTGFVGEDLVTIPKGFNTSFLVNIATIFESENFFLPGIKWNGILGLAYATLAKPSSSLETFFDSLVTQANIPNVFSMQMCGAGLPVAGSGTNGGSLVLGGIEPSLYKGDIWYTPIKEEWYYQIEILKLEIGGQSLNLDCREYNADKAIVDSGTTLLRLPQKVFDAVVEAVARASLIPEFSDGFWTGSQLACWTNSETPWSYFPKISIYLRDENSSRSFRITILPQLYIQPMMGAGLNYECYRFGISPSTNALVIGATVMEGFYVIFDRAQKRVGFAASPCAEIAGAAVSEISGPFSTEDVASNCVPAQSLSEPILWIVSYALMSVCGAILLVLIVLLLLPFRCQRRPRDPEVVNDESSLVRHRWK
Nature of the data set: Fluorescent Kinetic Assay for Human Recombinant BACE 2 (selectivity BACE1/BACE2).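 Further: cleavage rate from the linear slope of fluorescence (excitation 320 nm, emission 420 nm) recorded every 40 s over 30 min at room temperature, sodium acetate buffer with 0.05% CHAPS.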 It is filed as biochemical. As to conditions: selectivity BACE1 over BACE2; 1.5 nM human BACE2, 25 μM substrate, pH 4.5.

Broadly, the melting point is the temperature of the solid-liquid transition. For the compound `CCCNC1=NC(c2cccc(-c3cncnc3)c2)(c2ccc(OCCC)c(C)c2)C(=O)N1C` (stereo not drawn), the melting point was in the range of 64 to 66 °C.

One may read the IC50 as the concentration needed to halve the response being measured. Take `COc1cc(C2(c3cccc(-c4cccnc4)c3)N=C(N)N(C)C2=O)cc(OC)c1OC` (stereo not drawn) [Example 23]: the melting point was in the range of 104 to 107 °C. The IC50 on human BACE1 lay within 0.01 to 0.1 µM. For the same compound, the BACE1/BACE2 selectivity entry on human BACE2 is listed as “II (II = 10-100-fold selectivity)”.

The compound `CN1C(=O)C(c2cccc(OC(F)(F)F)c2)(c2cccc(-c3cccnc3)c2)N=C1N` (stereo not drawn) [Example 25] registered a melting point of 198 °C. Besides, the IC50 on human BACE1 lay in the range of 0.01 to 0.1 µM. In addition, at human BACE2, the BACE1/BACE2 selectivity result is “II (II = 10-100-fold selectivity)”.

The compound `CN1C(=O)C(c2cccc(-c3cccnc3)c2)(c2ccc(OC(F)(F)F)c(C(F)(F)F)c2)N=C1N` (stereo not drawn) [Example 26] returned a melting point of 98 °C. In addition, at human BACE1, the IC50 lay within 0.01 to 0.1 µM. Moreover, the BACE1/BACE2 selectivity result at human BACE2 was “II (II = 10-100-fold selectivity)”.

The compound `CCOc1ccc(C2(c3ccc(F)c(-c4cccnc4)c3)N=C(N)N(C)C2=O)cc1OCC` (stereo not drawn) [Example 27] showed a melting point of 99 to 100 °C. Further, the IC50 at human BACE1 lay within 0.01 to 0.1 µM. Besides, the BACE1/BACE2 selectivity result at human BACE2 is recorded as “II (II = 10-100-fold selectivity)”.

`CN1C(=O)C(c2ccc(OC(F)(F)F)c(Cl)c2)(c2ccc(F)c(-c3cccnc3)c2)N=C1N` (stereo not drawn) [Example 28]: the melting point fell in the range of 99 to 102 °C. Further, the IC50 on human BACE1 is 0.01 to 0.1 µM. Also, the BACE1/BACE2 selectivity result at human BACE2 is “II (II = 10-100-fold selectivity)”.

Turning to `COc1ccc(C2(c3cccc(-c4ccncc4)c3)N=C(N)N(C)C2=O)cc1C` (stereo not drawn) [Example 36, 2-Amino-5-(4-methoxy-3-methylphenyl)-3-methyl-5-(3-pyridin-4-ylphenyl)-3,5-dihydro-4H-imidazol-4-one], the melting point came out at 175 °C. The IC50 at human BACE1 was in the range of 0.01 to 0.1 µM. For the same compound, the BACE1/BACE2 selectivity entry at human BACE2 is “III (III = <10-fold selectivity)”.

`CN1C(=O)C(c2ccc(OC(F)(F)F)c(F)c2)(c2ccc(F)c(-c3cncc(Cl)c3)c2)N=C1N` (stereo not drawn) [Example 42]: the melting point lay within 201 to 203 °C. Further, at human BACE1, the IC50 was 0.11 to 1 µM. In addition, the BACE1/BACE2 selectivity result on human BACE2 is on record as “II (II = 10-100-fold selectivity)”.

As to `CCOc1ccc(C2(c3cccc(-c4cncnc4)c3)N=C(N)N(C)C2=O)cc1OCC` (stereo not drawn) [Example 44], the melting point is 100 to 105 °C. Besides, at human BACE1, the IC50 lay in the range of 0.01 to 0.1 µM. Besides, the BACE1/BACE2 selectivity entry at human BACE2 is listed as “II (II = 10-100-fold selectivity)”.

`CN1C(=O)C(c2ccc(OC(F)(F)F)cc2)(c2ccc(F)c(-c3cncc(Cl)c3)c2)N=C1N` (stereo not drawn) [Example 46] displayed a melting point of 241 to 243 °C. For the same compound, on human BACE1, the IC50 was 0.11 to 1 µM. For the same compound, the BACE1/BACE2 selectivity result on human BACE2 is “II (II = 10-100-fold selectivity)”.

Compound `CN1C(=O)C(c2ccc(OC(F)(F)F)cc2)(c2ccc(F)c(-c3cncc(F)c3)c2)N=C1N` (stereo not drawn) [Example 47] gave a melting point of 216 to 218 °C. Further, the IC50 on human BACE1 fell in the range of 0.11 to 1 µM. Further, at human BACE2, the BACE1/BACE2 selectivity result is listed as “II (II = 10-100-fold selectivity)”.

As to `CN1C(=O)C(c2ccc(OC(F)(F)F)cc2)(c2ccc(Cl)c(-c3cncnc3)c2)N=C1N` (stereo not drawn) [Example 49], the melting point was in the range of 124 to 129 °C. For the same compound, at human BACE1, the IC50 was 0.11 to 1 µM. On human BACE2, the BACE1/BACE2 selectivity entry is recorded as “I (I = >100-fold selectivity)”.

`CN1C(=O)C(c2ccc(OC(F)(F)F)cc2)(c2ccc(F)c(-c3cccnc3)c2)N=C1N` (stereo not drawn) [Example 50] came in with a melting point of 134 °C. The IC50 on human BACE1 lay in the range of 0.01 to 0.1 µM. The BACE1/BACE2 selectivity result on human BACE2 is “II (II = 10-100-fold selectivity)”.

In turn, `COc1cncc(-c2cccc(C3(c4ccc(OC(F)(F)F)cc4)N=C(N)N(C)C3=O)c2)c1` (stereo not drawn) [Example 51] gave a melting point of 212 °C. At human BACE1, the 50% inhibitory concentration (IC50) fell in the range of 0.01 to 0.1 µM. The BACE1/BACE2 selectivity entry at human BACE2 is “III (III = <10-fold selectivity)”.

For `COc1ccc(C2(c3ccc(F)c(-c4cncnc4)c3)N=C(N)N(C)C2=O)cc1C(F)(F)F` (stereo not drawn) [Example 56], the melting point amounted to 115 °C. Moreover, the IC50 at human BACE1 was 0.01 to 0.1 µM. For the same compound, on human BACE2, the BACE1/BACE2 selectivity result is reported as “I (I = >100-fold selectivity)”.

As to `CCOc1ccc(C2(c3ccc(F)c(-c4cncnc4)c3)N=C(N)N(C)C2=O)cc1OCC` (stereo not drawn) [Example 86], the melting point is 95 to 98 °C. At human BACE1, the IC50 was 0.01 to 0.1 µM. Also, the BACE1/BACE2 selectivity entry at human BACE2 is reported as “I (I = >100-fold selectivity)”.

As for `CN1C(=O)C(c2ccc(SC(F)(F)F)cc2)(c2ccc(F)c(-c3cccnc3F)c2)N=C1N` (stereo not drawn) [Example 93], the melting point is 95 °C. In addition, the IC50 at human BACE1 is 0.01 to 0.1 µM. For the same compound, the BACE1/BACE2 selectivity result at human BACE2 was “II (II = 10-100-fold selectivity)”.

With `CN1C(=O)C(c2ccc(SC(F)(F)F)cc2)(c2ccc(F)c(-c3cncnc3)c2)N=C1N` (stereo not drawn) [Example 94], the melting point turned out to be 183 °C. The IC50 on human BACE1 was 0.11 to 1 µM. Moreover, at human BACE2, the BACE1/BACE2 selectivity result was “II (II = 10-100-fold selectivity)”.

The compound `CN1C(=O)C(c2ccc(OC(F)F)cc2)(c2ccc(F)c(-c3cccnc3)c2)N=C1N` (stereo not drawn) [Example 95] returned a melting point of 104 to 106 °C. The IC50 on human BACE1 lay in the range of 0.01 to 0.1 µM. The BACE1/BACE2 selectivity entry at human BACE2 is given as “II (II = 10-100-fold selectivity)”.

The compound `CN1C(=O)C(c2ccc(OC(F)F)cc2)(c2ccc(F)c(-c3cccnc3F)c2)N=C1N` (stereo not drawn) [Example 96] displayed a melting point of 108 to 110 °C. In addition, the IC50 on human BACE1 lay within 0.01 to 0.1 µM. For the same compound, the BACE1/BACE2 selectivity entry on human BACE2 is “II (II = 10-100-fold selectivity)”.

In turn, `CN1C(=O)C(c2ccc(OC(F)F)cc2)(c2ccc(F)c(-c3cncnc3)c2)N=C1N` (stereo not drawn) [Example 97] came in with a melting point of 103 to 105 °C. For the same compound, on human BACE1, the IC50 lay within 0.01 to 0.1 µM. Besides, the BACE1/BACE2 selectivity result on human BACE2 is recorded as “II (II = 10-100-fold selectivity)”.

`CCOc1ccc(C2(c3ccc(F)c(-c4cccnc4)c3)N=C(N)N(C)C2=O)cc1OCC` (stereo not drawn) [Example 99]: the melting point lay in the range of 93 to 95 °C. The IC50 at human BACE1 lay in the range of 0.01 to 0.1 µM. At human BACE2, the BACE1/BACE2 selectivity entry was “III (III = <10-fold selectivity)”.

With `CN1C(=O)C(c2ccc(OCCF)c(OCCF)c2)(c2ccc(F)c(-c3cccnc3F)c2)N=C1N` (stereo not drawn) [Example 104, 2-Amino-5-[3,4-bis-(2-fluoro-ethoxy)-phenyl]-5-[4-fluoro-3-(2-fluoro-pyridin-3-yl)-phenyl]-3-methyl-3,5-dihydro-imidazol-4-one], the melting point was 85 to 95 °C. The IC50 at human BACE1 lay within 0.01 to 0.1 µM. Further, the BACE1/BACE2 selectivity result on human BACE2 is “II (II = 10-100-fold selectivity)”.

Compound `CN1C(=O)C(c2ccc(OCCF)cc2)(c2ccc(F)c(-c3cccnc3F)c2)N=C1N` (stereo not drawn) [Example 108, 2-Amino-5-[4-(2-fluoroethoxy)phenyl]-5-[4-fluoro-3-(2-fluoropyridin-3-yl)phenyl]-3-methyl-3,5-dihydro-4H-imidazol-4-one] had a melting point of 135 °C. Besides, the IC50 on human BACE1 lay in the range of 0.01 to 0.1 µM. Also, the BACE1/BACE2 selectivity entry on human BACE2 is given as “II (II = 10-100-fold selectivity)”.

Turning to `CN1C(=O)C(c2ccc(OCCF)cc2)(c2ccc(F)c(-c3cncnc3)c2)N=C1N` (stereo not drawn) [Example 109], the melting point stood at 123 °C. Besides, the IC50 on human BACE1 was 0.01 to 0.1 µM. For the same compound, the BACE1/BACE2 selectivity result at human BACE2 was “II (II = 10-100-fold selectivity)”.

For the compound `CN1C(=O)C(c2ccc(OCCF)cc2)(c2cccc(-c3ccc(F)nc3)c2)N=C1N` (stereo not drawn) [Example 111], the melting point is 100 °C. Besides, the IC50 on human BACE1 lay in the range of 0.11 to 1 µM. Further, at human BACE2, the BACE1/BACE2 selectivity entry is on record as “III (III = <10-fold selectivity)”.

As for `Cc1cc(C2(c3ccc(F)c(-c4cccnc4F)c3)N=C(N)N(C)C2=O)ccc1OCCF` (stereo not drawn) [Example 112], the melting point is 105 to 106 °C. Further, on human BACE1, the IC50 was in the range of 0.01 to 0.1 µM. Besides, at human BACE2, the BACE1/BACE2 selectivity entry is reported as “II (II = 10-100-fold selectivity)”.

As for `Cc1cc(C2(c3cccc(-c4cncnc4)c3)N=C(N)N(C)C2=O)ccc1O[C@H](C)c1ccccc1` (stereo partly drawn) [Example 131, 2-amino-3-methyl-5-{3-methyl-4-[(1R)-1-phenylethoxy]phenyl}-5-(3-pyrimidin-5-ylphenyl)-3,5-dihydro-4H-imidazol-4-one], the melting point was in the range of 112 to 114 °C. At human BACE1, the IC50 was 0.01 to 0.1 µM.

In the case of `COc1ccc([C@@]2(c3ccc(F)c(-c4cnccc4F)c3)N=C(N)N(C)C2=O)cc1` [Example 143A, (5S)-2-Amino-5-[4-fluoro-3-(4-fluoropyridin-3-yl)phenyl]-5-(4-methoxyphenyl)-3-methyl-3,5-dihydro-4H-imidazol-4-one], on human BACE1, the IC50 was above 1 µM. The BACE1/BACE2 selectivity entry on human BACE2 is listed as “III (III = <10-fold selectivity)”.

With `COc1ccc([C@]2(c3ccc(F)c(-c4cnccc4F)c3)N=C(N)N(C)C2=O)cc1` [Example 143B, (5R)-2-Amino-5-[4-fluoro-3-(4-fluoropyridin-3-yl)phenyl]-5-(4-methoxyphenyl)-3-methyl-3,5-dihydro-4H-imidazol-4-one], the IC50 at human BACE1 was 0.01 to 0.1 µM. Moreover, the BACE1/BACE2 selectivity result at human BACE2 was “II (II = 10-100-fold selectivity)”.

Regarding `CN1CC(c2ccc(OC(F)(F)F)cc2)(c2ccc(F)c(-c3cccnc3F)c2)N=C1N` (stereo not drawn) [Example 144, 4-[4-Fluoro-3-(2-fluoropyridin-3-yl)phenyl]-1-methyl-4-(4-trifluoromethoxyphenyl)-4,5-dihydro-1H-imidazol-2-ylamine], the half-inhibitory concentration (IC50) at human BACE1 was 0.11 to 1 µM. On human BACE2, the BACE1/BACE2 selectivity entry was “I (I = >100-fold selectivity)”.
